Experimental data: PubChem BioAssay AID743141 (Broad Institute, 2013)
Active and inactive are the calls of the source.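 Rule for the calls: active = compounds that cut viability of the normal-p53 cell line panel with an IC50 under 10 µM; inactive = IC50 above 10 µM.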

Assays:
Experiment in all cases: growth inhibition in A549, HCT116, IMR90 – cell-based, TP53 wild-type panel, dry powder, selectivity assay for cell-selective anticancer agent project, dose response (AID 743141)
[1] = test system: A549 viability, CellTiter-Glo luminescence, 48 h
[2] = test system: HCT116 viability, CellTiter-Glo luminescence, 48 h
[3] = test system: IMR90 viability, CellTiter-Glo luminescence, 48 h

Row | Structure (SMILES) | IC50 [1] | IC50 [2] [µM] | IC50 [3] [µM]
1 | COc1cc2c(cc1OC)-c1cc(=Nc3c(C)cc(C)cc3C)n(C)c(=O)n1CC2 | > 10 µM (inactive) | > 10 | > 10
2 | C[C@@H]1CC(=O)NN=C1c1ccc(C2CCCCC2)cc1 | > 10 µM (inactive) | > 10 | > 10
3 | C[C@H]1CC(=O)NN=C1c1ccc(N2CCOCC2)c(F)c1 | > 10 µM (inactive) | > 10 | > 10
4 | O=C1CN2Cc3c(ccc(Cl)c3Cl)N=C2N1 | > 10 µM (inactive) | > 10 | > 10
5 | CC(=O)Nc1ccc(C2=NNC(=O)C[C@H]2C)cc1 | > 10 µM (inactive) | > 10 | > 10
6 | C[C@@H]1CC(=O)NN=C1c1ccc(-c2cncnc2)cc1 | > 10 µM (inactive) | > 10 | > 10
7 | C[C@@H]1CC(=O)NN=C1c1ccc(Cl)cc1 | > 10 µM (inactive) | > 10 | > 10
8 | C[C@@H]1CC(=O)NN=C1c1ccc(F)c(F)c1 | > 10 µM (inactive) | > 10 | > 10
9 | C[C@@H]1CC(=O)NN=C1c1ccc(N2CCOCC2)cc1 | > 10 µM (inactive) | > 10 | > 10
10 | C[C@@H]1CC(=O)NN=C1c1ccc(N2CCOCC2)c(F)c1 | > 10 µM (inactive) | > 10 | > 10
11 | CCN(CC)c1ccc(C2=NNC(=O)CC2C)cc1[N+](=O)[O-] (stereo unspecified) | > 10 µM (inactive) | > 10 | > 10
12 | CCN1N=C(c2ccc(N(CC)CC)cc2)[C@H](C)CC1=O | > 10 µM (inactive) | > 10 | > 10
